Laboratory results reported in patent publication US20080025946A1, “INTERLEUKIN 21 AND TYROSINE KINASE INHIBITOR COMBINATION THERAPY” (priority 2006, published 2008).
Read-outs that look alike come from different tables or passages of the source.

How the values were obtained:
[1] = test system: RenCa.2 tumor; assay: Concurrent mIL-21 and sub-maximal sorafenib: RenCa.2 tumor growth in mice; type: in vivo, mouse
Protocol: Tumor volume was monitored 3×/week for 3 weeks.
Ten-week old female BALB/c mice (Charles River Laboratories) were injected s.c. on the right flank with 0.1×10^6 RenCa.2 cells on Day 0. […] Tumor growth was monitored 3×/week for 3 weeks using caliper measurements. Tumor volume is calculated using the formula ½*(B)2*L (mm3).

[2] = test system: RenCa.2 tumors; assay: Concurrent mIL-21 and high dose sorafenib: survival of mice bearing RenCa.2 tumors; type: in vivo, mouse; conditions: BALB/c mice, s.c. RenCa; from day 5: 50 μg mIL-21 i.p. 5/9/5 and/or 60 mg/kg sorafenib oral gavage 10 days; n=10/group
Protocol: Survival of mice receiving the treatments were monitored over 35 days.
Survival of mice were monitored over 35 days.
Ten-week old female BALB/c mice (Charles River Laboratories) were injected s.c. on the right flank with 0.1×10^6 RenCa cells on Day 0. […] Tumor growth was monitored 3×/week for 3 weeks using caliper measurements. Survival of mice were monitored over 35 days. Tumor bearing mice were terminated as per IACUC policies with regard to maximal tumor size (1200 mm^3) or weight loss of >=20% of initial body weight.

[3] = test system: murine model of renal adenocarcinoma (RenCa); conditions: cited from earlier work
[4] = test system: RenCa.2 mouse renal cell carcinoma model; conditions: RenCa.2 model

Compound	inhibition of tumor growth (in words) ([1]; 25 μg mIL-21 and/or 2 mg/kg sorafenib, RenCa.2 model)	Tumor volume mm3 + SD(Day21) ([1]; BALB/c mice, s.c. RenCa.2, from day 3: 25 μg mIL-21 i.p. 5 days and/or 2 mg/kg sorafenib oral gavage 10 days, Day 21, n=10/group)	% mice surviving at Day 35 [2]	inhibition of tumor growth ([3]; 7.5 mg/kg daily)	inhibition of tumor growth ([3]; 60 mg/kg daily)	doses at which partially effective in mediating tumor clearance [4]	doses at which maximally effective in mediating tumor clearance ([4]; sunitinib orally administered)
CNC(=O)c1cc(Oc2ccc(NC(=O)Nc3ccc(Cl)c(C(F)(F)F)c3)cc2)ccn1 [sorafenib]	partially effective	790.3 + 398.8 mm3	50%	30%	84%	below 10 mg/kg	
CCN(CC)CCNC(=O)c1c(C)[nH]c(/C=C2\C(=O)Nc3ccc(F)cc32)c1C [sunitinib]							above 40 mg/kg
